# Test results reported in US9434993B2, “Systems for identifying cosmetic agents for skin care compositions” (The Procter & Gamble Company, priority 2011, dated 2016).
# “Also recorded” adds a separate entry of the source.
# What was measured:
# [1] = system: Telomerized-keratinocytes; assay: Microscopic evaluation of cell morphology, telomerized keratinocytes; type: cell-based, human; details: 10 μM in DMSO for 6 hr; vs 0.1% DMSO vehicle control
# Method: (§1) All cells were incubated at 37° C. in a humidified incubator with 5% CO2. At t=−24 hours cells were trypsinized from T-75 flasks and plated into 6-well plates in basal growth medium. At t=0 media was removed and replaced with the appropriate dosing solution as per the experimental design. Dosing solutions were prepared the previous day in sterile 4 ml Falcon snap cap tubes. Pure test materials may be prepared at a concentration of 1-200 μM, and botanical extracts may be prepared at a concentration of 0.001 to 1% by weight of the dosing solution. After 6 to 24 hours of chemical exposure, cells were viewed and imaged. The wells were examined with a microscope before cell lysis and RNA isolation to evaluate for morphologic evidence of toxicity. […] Cells were then lysed with 350 ul/well of RLT buffer containing β-mercaptoethanol (Qiagen, Valencia, Calif.), transferred to a 96-well plate, and stored at −20° C.
# BJ fibroblasts = assay: Microscopic evaluation of cell morphology, BJ fibroblasts; type: cell-based, human; details: 10 μM in DMSO for 6 hr; vs 0.1% DMSO vehicle control
# Method: as §1
smiles,measurement,setting,value
"CC1=C(/C=C/C(C)=C/C=C/C(C)=C/C(=O)O)C(C)(C)CCC1 [tRA, all-trans-retinoic acid]",morphology of treated keratinocytes,[1],marked morphologic changes; also recorded: dramatic morphologic changes
same,morphology of treated fibroblasts,BJ fibroblasts,no apparent morphologic effect
